Test results published in patent US20250134861A1, “COMPOSITIONS COMPRISING 5-METHOXY-N,N-DIMETHYLTRYPTAMINE (5-MEO-DMT) FOR USE IN TREATING MENTAL DISORDERS” (GH RESEARCH IRELAND LIMITED, priority 2019, published 2025).

Columns and labels:
[1] = test system: patients with treatment-resistant major depressive disorder; assay: Clinical trial of inhaled 5-MeO-DMT in TRD patients: depression severity and psychiatric symptom scales
[2] = test system: patients with treatment-resistant major depressive disorder; assay: Clinical trial of inhaled 5-MeO-DMT in TRD patients: safety and tolerability; format: in vivo, human
[3] = test system: patients with treatment-resistant major depressive disorder; assay: Clinical trial of inhaled 5-MeO-DMT in TRD patients: intensity of the psychedelic effects (MEQ30, ASC, PPEQ); format: in vivo, human; conditions: single 12 mg inhaled dose
Protocol: The following questionnaire is applied in situations where the acute psychedelic experience after treatment with 5-MeO-DMT needs to be quantified. At the end of relevant treatment sessions, the patient is handed a paper form and asked to rate the degree to which at any time during that session they experienced any of the phenomena listed below using the scale listed below. The MEQ30 is then computed and the occurrence of a peak psychedelic experience is then evaluated as described under scoring instructions.
The score for each individual subscale is computed by calculating the average score (from the scale of 0 to 5) for the phenomena belonging to the subscale as listed below.
The MEQ30-total score is computed by taking the average response to all phenomena. Patients or probands with a score≥60% of the maximum possible score on each of the four subscales of the MEQ30 are considered to have experienced a “peak psychedelic experience”.
The Peak Psychedelic Experience Questionnaire (PPEQ) has been developed by the inventor as an improved alternative to the oceanic boundlessness dimension of the ASC and the MEQ30 to allow a simpler and quicker assessment of the intensity of a psychedelic experience.

[4] = Patient 1, 2 h after single 12 mg inhaled dose, baseline 1
[5] = Patient 1, 2 h after single 12 mg inhaled dose, baseline 5
[6] = Patient 1, 1 d after single 12 mg inhaled dose, baseline 1
[7] = Patient 1, 1 d after single 12 mg inhaled dose, baseline 5
[8] = Patient 1, 7 d after single 12 mg inhaled dose, baseline 1
[9] = Patient 1, 7 d after single 12 mg inhaled dose, baseline 5
[10] = Patient 2, 2 h after single 12 mg inhaled dose, baseline 5
[11] = Patient 2, 1 d after single 12 mg inhaled dose, baseline 5
[12] = Patient 2, 7 d after single 12 mg inhaled dose, baseline 5
[13] = both patients, after single 12 mg inhaled dose
[14] = both patients, all assessment time points (2 h, 1 d, 7 d) after single 12 mg inhaled dose
[15] = both patients, single 12 mg inhaled dose

COc1ccc2[nH]cc(CCN(C)C)c2c1 [5-MeO-DMT, 5-methoxy-N,N-dimethyltryptamine] was tested, and the “PGI-I (7-point scale; 1, Very much improved; 2, Much improved; 7, Very much worse)” value (“PGI-I” for short) ([1]; Patient 1, 2 h after single 12 mg inhaled dose) was 1, the “BPRS Unusual thought content (1-7)” value [1, 4] was 1 and the “MADRS suicidal thoughts item (0 to 6)” value [1, 4] was 0. For the same compound, the “BPRS Somatic concern (1-7)” value ([1]; Patient 1, 2 h after single 12 mg inhaled dose, baseline 3) was 2, the “BPRS Tension (1-7)” value ([1]; Patient 1, 2 h after single 12 mg inhaled dose, baseline 4) was 3 and the “BPRS Guilt feelings (1-7)” value [1, 5] was 1. For the same compound, the “PGI-S (7-point scale; 1, Normal, not at all ill; 7, Extremely ill)” value [1, 5] was 1, the “BPRS Depressive Mood (1-7)” value ([1]; Patient 1, 2 h after single 12 mg inhaled dose, baseline 6) was 2 and the “BPRS Anxiety (1-7)” value ([1]; Patient 1, 2 h after single 12 mg inhaled dose, baseline 7) was 2. For the same compound, the “MADRS (overall score 0 to 60)” value ([1]; Patient 1, 2 h after single 12 mg inhaled dose, baseline 31, sleep item carried forward from baseline) was 10, the “BPRS (total, 18 symptoms each rated 1-7)” value ([1]; Patient 1, 2 h after single 12 mg inhaled dose, baseline 42) was 27 and the “C-SSRS Suicidal Ideation (any of the suicidal ideation items present)” value ([1]; Patient 1, 2 h after single 12 mg inhaled dose, baseline Yes) was “No”. For the same compound, the “PGI-I” value ([1]; Patient 1, 1 d after single 12 mg inhaled dose) was 1, the “BPRS Unusual thought content (1-7)” value [1, 6] was 1 and the “MADRS suicidal thoughts item (0 to 6)” value [1, 6] was 0. The “BPRS Somatic concern (1-7)” value ([1]; Patient 1, 1 d after single 12 mg inhaled dose, baseline 3) was 1, the “BPRS Tension (1-7)” value ([1]; Patient 1, 1 d after single 12 mg inhaled dose, baseline 4) was 1 and the “BPRS Guilt feelings (1-7)” value [1, 7] was 1. For the same compound, the “PGI-S (7-point scale; 1, Normal, not at all ill; 7, Extremely ill)” value [1, 7] was 1, the “BPRS Depressive Mood (1-7)” value ([1]; Patient 1, 1 d after single 12 mg inhaled dose, baseline 6) was 1 and the “BPRS Anxiety (1-7)” value ([1]; Patient 1, 1 d after single 12 mg inhaled dose, baseline 7) was 1. For the same compound, the “MADRS (overall score 0 to 60)” value ([1]; Patient 1, 1 d after single 12 mg inhaled dose, baseline 31) was 8, the “BPRS (total, 18 symptoms each rated 1-7)” value ([1]; Patient 1, 1 d after single 12 mg inhaled dose, baseline 42) was 18 and the “C-SSRS Suicidal Ideation (any of the suicidal ideation items present)” value ([1]; Patient 1, 1 d after single 12 mg inhaled dose, baseline Yes) was “No”. The “PGI-I” value ([1]; Patient 1, 7 d after single 12 mg inhaled dose) was 1, the “BPRS Unusual thought content (1-7)” value [1, 8] was 1 and the “MADRS suicidal thoughts item (0 to 6)” value [1, 8] was 0. For the same compound, the “BPRS Somatic concern (1-7)” value ([1]; Patient 1, 7 d after single 12 mg inhaled dose, baseline 3) was 1, the “BPRS Tension (1-7)” value ([1]; Patient 1, 7 d after single 12 mg inhaled dose, baseline 4) was 1 and the “BPRS Guilt feelings (1-7)” value [1, 9] was 1. The “PGI-S (7-point scale; 1, Normal, not at all ill; 7, Extremely ill)” value [1, 9] was 1, the “BPRS Depressive Mood (1-7)” value ([1]; Patient 1, 7 d after single 12 mg inhaled dose, baseline 6) was 1 and the “BPRS Anxiety (1-7)” value ([1]; Patient 1, 7 d after single 12 mg inhaled dose, baseline 7) was 1. For the same compound, the “MADRS (overall score 0 to 60)” value ([1]; Patient 1, 7 d after single 12 mg inhaled dose, baseline 31) was 3, the “BPRS (total, 18 symptoms each rated 1-7)” value ([1]; Patient 1, 7 d after single 12 mg inhaled dose, baseline 42) was 18 and the “C-SSRS Suicidal Ideation (any of the suicidal ideation items present)” value ([1]; Patient 1, 7 d after single 12 mg inhaled dose, baseline Yes) was “No”. For the same compound, the “PGI-I” value ([1]; Patient 2, 2 h after single 12 mg inhaled dose) was 2, the “MADRS suicidal thoughts item (0 to 6)” value ([1]; Patient 2, 2 h after single 12 mg inhaled dose, baseline 1) was 0 and the “BPRS Tension (1-7)” value ([1]; Patient 2, 2 h after single 12 mg inhaled dose, baseline 3) was 1. For the same compound, the “BPRS Somatic concern (1-7)” value ([1]; Patient 2, 2 h after single 12 mg inhaled dose, baseline 4) was 1, the “BPRS Anxiety (1-7)” value [1, 10] was 2 and the “BPRS Depressive Mood (1-7)” value [1, 10] was 3. The “BPRS Guilt feelings (1-7)” value [1, 10] was 1, the “PGI-S (7-point scale; 1, Normal, not at all ill; 7, Extremely ill)” value [1, 10] was 1 and the “BPRS Unusual thought content (1-7)” value ([1]; Patient 2, 2 h after single 12 mg inhaled dose, baseline 6) was 1. The “MADRS (overall score 0 to 60)” value ([1]; Patient 2, 2 h after single 12 mg inhaled dose, baseline 33, sleep item carried forward from baseline) was 9, the “BPRS (total, 18 symptoms each rated 1-7)” value ([1]; Patient 2, 2 h after single 12 mg inhaled dose, baseline 45) was 26 and the “C-SSRS Suicidal Ideation (any of the suicidal ideation items present)” value ([1]; Patient 2, 2 h after single 12 mg inhaled dose, baseline No) was “No”. For the same compound, the “PGI-I” value ([1]; Patient 2, 1 d after single 12 mg inhaled dose) was 2, the “MADRS suicidal thoughts item (0 to 6)” value ([1]; Patient 2, 1 d after single 12 mg inhaled dose, baseline 1) was 1 and the “BPRS Tension (1-7)” value ([1]; Patient 2, 1 d after single 12 mg inhaled dose, baseline 3) was 1. The “BPRS Somatic concern (1-7)” value ([1]; Patient 2, 1 d after single 12 mg inhaled dose, baseline 4) was 1, the “BPRS Anxiety (1-7)” value [1, 11] was 1 and the “BPRS Depressive Mood (1-7)” value [1, 11] was 1. The “BPRS Guilt feelings (1-7)” value [1, 11] was 1, the “PGI-S (7-point scale; 1, Normal, not at all ill; 7, Extremely ill)” value [1, 11] was 1 and the “BPRS Unusual thought content (1-7)” value ([1]; Patient 2, 1 d after single 12 mg inhaled dose, baseline 6) was 1. For the same compound, the “MADRS (overall score 0 to 60)” value ([1]; Patient 2, 1 d after single 12 mg inhaled dose, baseline 33) was 5, the “BPRS (total, 18 symptoms each rated 1-7)” value ([1]; Patient 2, 1 d after single 12 mg inhaled dose, baseline 45) was 19 and the “C-SSRS Suicidal Ideation (any of the suicidal ideation items present)” value ([1]; Patient 2, 1 d after single 12 mg inhaled dose, baseline No) was “No”. The “PGI-I” value ([1]; Patient 2, 7 d after single 12 mg inhaled dose) was 2, the “MADRS suicidal thoughts item (0 to 6)” value ([1]; Patient 2, 7 d after single 12 mg inhaled dose, baseline 1) was 0 and the “BPRS Tension (1-7)” value ([1]; Patient 2, 7 d after single 12 mg inhaled dose, baseline 3) was 1. For the same compound, the “BPRS Somatic concern (1-7)” value ([1]; Patient 2, 7 d after single 12 mg inhaled dose, baseline 4) was 1, the “BPRS Anxiety (1-7)” value [1, 12] was 1 and the “BPRS Depressive Mood (1-7)” value [1, 12] was 1. The “BPRS Guilt feelings (1-7)” value [1, 12] was 1, the “PGI-S (7-point scale; 1, Normal, not at all ill; 7, Extremely ill)” value [1, 12] was 1 and the “BPRS Unusual thought content (1-7)” value ([1]; Patient 2, 7 d after single 12 mg inhaled dose, baseline 6) was 1. The “MADRS (overall score 0 to 60)” value ([1]; Patient 2, 7 d after single 12 mg inhaled dose, baseline 33) was 5, the “BPRS (total, 18 symptoms each rated 1-7)” value ([1]; Patient 2, 7 d after single 12 mg inhaled dose, baseline 45) was 18 and the “C-SSRS Suicidal Ideation (any of the suicidal ideation items present)” value ([1]; Patient 2, 7 d after single 12 mg inhaled dose, baseline No) was “No”. The “Other general psychiatric symptoms assessed by the BPRS (somatic concern, anxiety, guilt, tension)” value [1, 13] was “improved”, the “Ratings for suicidality (suicidal thoughts item of the MADRS, C-SSRS Suicidal Ideation items)” value [1, 13] was “improved” and the “MADRS remission (MADRS total score equal or less than 10)” value [1, 14] was “fulfilled standard criteria”. The “MADRS response (at least 50% improvement from baseline)” value [1, 14] was “fulfilled standard criteria”, the “Time to clinical remission after a single administration” value [1, 15] was ≤ 2 h and the “Time to clinical response after administration” value [1, 15] was ≤ 2 h. For the same compound, the Reported adverse events ([2]; Patient 1, single 12 mg inhaled dose, Day 1) was “Headache, Flashback”, the Reported adverse events ([2]; Patient 1, single 12 mg inhaled dose, Day 7) was “Headache” and the Reported adverse events ([2]; Patient 1, single 12 mg inhaled dose, administration day) was “Dizziness”. For the same compound, the Reported adverse events ([2]; Patient 2, single 12 mg inhaled dose, Day 1) was “Headache”, the Reported adverse events ([2]; Patient 2, single 12 mg inhaled dose, Day 7) was “None reported” and the Reported adverse events ([2]; Patient 2, single 12 mg inhaled dose, administration day) was “None reported”. For the same compound, the “Assessments of ECG, safety laboratory analyses, CADSS and cognitive tests (PVT, DSST)” value ([2]; both patients, ECG at 3 hours, laboratory at 3 hours and 7 days, CADSS at 3 hours, 1 day, 7 days, cognitive tests at 1 day and 7 days) was “unremarkable”, the “Changes in vital parameters” value ([2]; both patients, shortly after single 12 mg inhaled dose, no other noteworthy changes) was “temporary, not clinically relevant increase in heart rate and blood pressure” and the “Severity and course of reported adverse events” value [2, 15] was “mild, short-lasting and resolved spontaneously”. The “Tolerability of the inhalation procedure” value [2, 15] was “well tolerated with no inhalation-related adverse events”, the “PPE achieved (ASC: at least 60% of the maximum possible score of the Oceanic Boundlessness dimension)” value ([3]; Patient 1) was “Yes” and the “PPE achieved (MEQ30: at least 60% of the maximum possible score in each of the four subscales)” value ([3]; Patient 1) was “Yes”. The “PPE achieved (PPEQ Total Score of at least 75)” value ([3]; Patient 1) was “Yes”, the “PPE achieved (ASC: at least 60% of the maximum possible score of the Oceanic Boundlessness dimension)” value ([3]; Patient 2) was “No” and the “PPE achieved (MEQ30: at least 60% of the maximum possible score in each of the four subscales)” value ([3]; Patient 2) was “Yes”. For the same compound, the “PPE achieved (PPEQ Total Score of at least 75)” value ([3]; Patient 2) was “Yes” and the “Onset of the first psychedelic symptoms after the inhalation” value ([3]; both patients) was “within a few seconds”.
